Test results published in PubChem BioAssay (NCI).
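1) Cells in 96-well plates. 2) Compound, 48 h, 5 concentrations. 3) Linear interpolation between surrounding doses. 4) Unreached endpoint = highest concentration. TGI marks complete inhibition of growth.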

Experiments:
Assay in all cases: NCI anticancer screen, dose series, 48 h
NCI-H460 lung = system: NCI-H460 lung
HOP-92 NSCLC = system: HOP-92 NSCLC
PC-3 prostate = system: PC-3 prostate
NCI-H23 lung = system: NCI-H23 lung
SK-OV-3 ovarian = system: SK-OV-3 ovarian
UO-31 renal = system: UO-31 renal
SF-268 CNS = system: SF-268 CNS
ACHN renal = system: ACHN renal
SN12C renal = system: SN12C renal
SW-620 colon = system: SW-620 colon
OVCAR-3 ovarian = system: OVCAR-3 ovarian
HCT-116 colon = system: HCT-116 colon
SNB-19 CNS = system: SNB-19 CNS
OVCAR-5 ovarian = system: OVCAR-5 ovarian
U251 CNS = system: U251 CNS
UACC-62 melanoma = system: UACC-62 melanoma
HL-60(TB) leukemia = system: HL-60(TB) leukemia
HT29 colon = system: HT29 colon
IGROV1 ovarian = system: IGROV1 ovarian
HCC-2998 colon = system: HCC-2998 colon
SF-295 CNS = system: SF-295 CNS
TK-10 renal = system: TK-10 renal
NCI/ADR-RES ovarian = system: NCI/ADR-RES ovarian
T-47D breast = system: T-47D breast
COLO 205 colon = system: COLO 205 colon
A549 NSCLC = system: A549 NSCLC
UACC-257 melanoma = system: UACC-257 melanoma
MALME-3M melanoma = system: MALME-3M melanoma
CCRF-CEM leukemia = system: CCRF-CEM leukemia
HS 578T breast = system: HS 578T breast
EKVX NSCLC = system: EKVX NSCLC
HOP-62 NSCLC = system: HOP-62 NSCLC
HCT-15 colon = system: HCT-15 colon
SK-MEL-5 melanoma = system: SK-MEL-5 melanoma
OVCAR-8 ovarian = system: OVCAR-8 ovarian
RXF 393 renal = system: RXF 393 renal
786-0 renal = system: 786-0 renal
K-562 leukemia = system: K-562 leukemia
SF-539 CNS = system: SF-539 CNS
SR leukemia = system: SR leukemia
NCI-H226 lung = system: NCI-H226 lung
SK-MEL-28 melanoma = system: SK-MEL-28 melanoma
MDA-MB-435 = system: MDA-MB-435
MDA-N = system: MDA-N
KM12 colon = system: KM12 colon
DU-145 prostate = system: DU-145 prostate
SNB-75 CNS = system: SNB-75 CNS
M14 melanoma = system: M14 melanoma
MCF7 breast = system: MCF7 breast
RPMI-8226 leukemia = system: RPMI-8226 leukemia
A498 renal = system: A498 renal
MOLT-4 leukemia = system: MOLT-4 leukemia
BT-549 breast = system: BT-549 breast
OVCAR-4 ovarian = system: OVCAR-4 ovarian
LOX IMVI melanoma = system: LOX IMVI melanoma
NCI-H522 lung = system: NCI-H522 lung
MDA-MB-231 breast = system: MDA-MB-231 breast
CAKI-1 renal = system: CAKI-1 renal
SK-MEL-2 melanoma = system: SK-MEL-2 melanoma

Cc1cc2ccccc2n2c1nc1ccccc12
TGI (NCI-H460 lung): > 100 µM | TGI (HOP-92 NSCLC): > 100 µM | TGI (PC-3 prostate): > 100 µM | TGI (NCI-H23 lung): > 100 µM | TGI (SK-OV-3 ovarian): > 100 µM | TGI (UO-31 renal): > 100 µM | TGI (SF-268 CNS): > 100 µM | TGI (ACHN renal): > 100 µM | TGI (SN12C renal): > 100 µM | TGI (SW-620 colon): > 100 µM | TGI (OVCAR-3 ovarian): > 100 µM | TGI (HCT-116 colon): > 100 µM | TGI (SNB-19 CNS): > 100 µM | TGI (OVCAR-5 ovarian): > 100 µM | TGI (U251 CNS): > 100 µM | TGI (UACC-62 melanoma): > 100 µM | TGI (HL-60(TB) leukemia): > 100 µM | TGI (HT29 colon): > 100 µM | TGI (IGROV1 ovarian): > 100 µM | TGI (HCC-2998 colon): > 100 µM | TGI (SF-295 CNS): > 100 µM | TGI (TK-10 renal): > 100 µM | TGI (NCI/ADR-RES ovarian): > 100 µM | TGI (T-47D breast): > 100 µM | TGI (COLO 205 colon): > 100 µM | TGI (A549 NSCLC): > 100 µM | TGI (UACC-257 melanoma): > 100 µM | TGI (MALME-3M melanoma): > 100 µM | TGI (CCRF-CEM leukemia): > 100 µM | TGI (HS 578T breast): > 100 µM | TGI (EKVX NSCLC): > 100 µM | TGI (HOP-62 NSCLC): > 100 µM | TGI (HCT-15 colon): > 100 µM | TGI (SK-MEL-5 melanoma): > 100 µM | TGI (OVCAR-8 ovarian): > 100 µM | TGI (RXF 393 renal): > 100 µM | TGI (786-0 renal): > 100 µM | TGI (K-562 leukemia): > 100 µM | TGI (SF-539 CNS): > 100 µM | TGI (SR leukemia): > 100 µM | TGI (NCI-H226 lung): > 100 µM | TGI (SK-MEL-28 melanoma): > 100 µM | TGI (MDA-MB-435): > 100 µM | TGI (MDA-N): > 100 µM | TGI (KM12 colon): > 100 µM | TGI (DU-145 prostate): > 100 µM | TGI (SNB-75 CNS): > 100 µM | TGI (M14 melanoma): > 100 µM | TGI (MCF7 breast): > 100 µM | TGI (RPMI-8226 leukemia): > 100 µM | TGI (A498 renal): 76.7 µM | TGI (MOLT-4 leukemia): > 100 µM | TGI (BT-549 breast): > 100 µM

CSc1nc(C#N)c(/N=C\N(C)C)n1C
TGI (NCI-H460 lung): > 100 µM | TGI (HOP-92 NSCLC): > 100 µM | TGI (OVCAR-4 ovarian): > 100 µM | TGI (PC-3 prostate): > 100 µM | TGI (NCI-H23 lung): > 100 µM | TGI (SK-OV-3 ovarian): > 100 µM | TGI (UO-31 renal): > 100 µM | TGI (SF-268 CNS): > 100 µM | TGI (ACHN renal): > 100 µM | TGI (SN12C renal): > 100 µM | TGI (SW-620 colon): > 100 µM | TGI (OVCAR-3 ovarian): > 100 µM | TGI (HCT-116 colon): > 100 µM | TGI (SNB-19 CNS): > 100 µM | TGI (OVCAR-5 ovarian): > 100 µM | TGI (U251 CNS): > 100 µM | TGI (LOX IMVI melanoma): > 100 µM | TGI (UACC-62 melanoma): > 100 µM | TGI (HL-60(TB) leukemia): > 100 µM | TGI (IGROV1 ovarian): > 100 µM | TGI (SF-295 CNS): > 100 µM | TGI (TK-10 renal): > 100 µM | TGI (NCI/ADR-RES ovarian): > 100 µM | TGI (T-47D breast): > 100 µM | TGI (NCI-H522 lung): > 100 µM | TGI (COLO 205 colon): > 100 µM | TGI (A549 NSCLC): > 100 µM | TGI (UACC-257 melanoma): > 100 µM | TGI (MALME-3M melanoma): > 100 µM | TGI (CCRF-CEM leukemia): > 100 µM | TGI (HS 578T breast): > 100 µM | TGI (EKVX NSCLC): > 100 µM | TGI (HOP-62 NSCLC): > 100 µM | TGI (HCT-15 colon): > 100 µM | TGI (SK-MEL-5 melanoma): > 100 µM | TGI (OVCAR-8 ovarian): > 100 µM | TGI (RXF 393 renal): > 100 µM | TGI (MDA-MB-231 breast): > 100 µM | TGI (786-0 renal): > 100 µM | TGI (K-562 leukemia): > 100 µM | TGI (SF-539 CNS): > 100 µM | TGI (SR leukemia): > 100 µM | TGI (NCI-H226 lung): > 100 µM | TGI (SK-MEL-28 melanoma): > 100 µM | TGI (MDA-MB-435): > 100 µM | TGI (MDA-N): > 100 µM | TGI (KM12 colon): > 100 µM | TGI (DU-145 prostate): > 100 µM | TGI (M14 melanoma): > 100 µM | TGI (CAKI-1 renal): > 100 µM | TGI (SK-MEL-2 melanoma): > 100 µM | TGI (RPMI-8226 leukemia): > 100 µM | TGI (A498 renal): > 100 µM | TGI (MOLT-4 leukemia): > 100 µM | TGI (BT-549 breast): > 100 µM
